Laboratory results as given in patent US7648967B2, “Mutagenic nucleoside analogs for the treatment of viral disease” (priority 2001, dated 2010).
Where two headings read alike, the source gives them in different places.

Columns and labels:
BVDV [1] = assay: Antiviral activity against BVDV by passaging virus in BT cells (CPE and viral titer); assay type: cell-based, bovine viral diarrhea virus; conditions: for viral replication: after a single passage
Description: (§1) Cytotoxicity was assayed using graded amounts of nucleoside analog in CV-1 cells or BT cells. 100 pfu of virus was inoculated in 10^5 CV-1 cells (MV) or BT cells (BVDV). Antiviral activity against MV or BVDV (an HCV surrogate) was tested by passaging the virus in the presence or absence of analog.
(§2) In screening experiments, replication of MV or BVDV was assessed by cytopathic effect (CPE) and viral titer after growth in cells for three to four days in the presence or absence of drug. […] Experiments were performed in triplicate (see FIGS. 2 and 4).

BVDV [2] = assay: Sequencing of BVDV glycoprotein fragment for viral mutagenesis; assay type: cell-based, bovine viral diarrhea virus; conditions: 2 mM, passage 1, BVDV glycoprotein fragment, vs DMSO control
Description: Fragment of 1 kb glycoprotein gene of clones BVDV at passage 1, BVDV treated with 2 mM 5-formyl-uridine vs. DMSO control.
(§3) For 5-formyl-uridine, sequencing was performed to confirm that viral extinction was due to viral mutagenesis by the nucleoside. Clones of MV were selected from treated and control virus at passage 4 and a 1 kb fragment of the matrix and a 1.7 kb fragment of the polymerase were sequenced. […] A fragment of the BVDV glycoprotein was also sequenced, in which the BVDV virus was treated with 2 mM 5-formyl-uridine.

measles virus (MV) [3] = assay: Antiviral activity against MV by passaging virus in CV-1 cells (CPE and viral titer); assay type: cell-based
Description: as §1, §2

measles virus (MV) [4] = assay: Sequencing of MV clones (matrix and polymerase fragments) for viral mutagenesis; assay type: cell-based; conditions: 0.15 mM, passage 4, 1 kb matrix and 1.7 kb polymerase fragments, vs DMSO control
Description: Fragment of 1 kb of matrix gene and 1.7 kb of polymerase of cones MV at passage 4, MV treated with 0.15 mM 5-formyl uridine vs. DMSO control.
as §3

CV-1 cells or BT cells = assay: Cytotoxicity with graded amounts of nucleoside analog; assay type: cell-based; conditions: Cercopithecidae, cell line (CV-1 or BT) not specified
Description: as §1

[5] = Bovine viral diarrhea virus isolates and strains
[6] = concentration of 0.5 mM, within one passage

Row | Compound | viral replication (BVDV [1]; BVDV) | EC50 (BVDV [1]; BVDV, read-out: EC50) [µM] | EC50 (BVDV [1]; [5]) [µM] | EC90 (BVDV [1]; [5]) [µM] | inhibition of BVDV replication (BVDV [1]; [6]) | increase in mutation (BVDV [2]) [fold] | EC50 (measles virus (MV) [3]; Measles morbillivirus, CV-1) [µM] | EC90 (measles virus (MV) [3]; Measles morbillivirus, CV-1) [µM] | inhibition of MV replication (measles virus (MV) [3]; [6]) | mutation rate above the spontaneous mutation rate of MV (measles virus (MV) [4]) [fold] | IC50 (CV-1 cells or BT cells) [mM]
1 | Nc1nc(N)c2ncn([C@@H]3O[C@H](CO)[C@@H](O)[C@H]3O)c2n1 [2,6 diaminopurine riboside] | inhibited | 70 | – | – | – | – | – | – | – | – | –
2 | O=Cc1cn([C@@H]2O[C@H](CO)[C@@H](O)[C@H]2O)c(=O)[nH]c1=O [5-formyl-uridine] | – | – | 150 | 400 | completely inhibited | 3.75 | 150 | 300 | completely inhibited | 1.6 | > 1
3 | Nc1[nH]c(=O)nc2c1ncn2[C@@H]1O[C@H](CO)[C@@H](O)[C@H]1O [isoguanosine] | inhibited | – | 80 | – | – | – | – | – | – | – | –
